# Assay results from PMC11858513, “Antibiofilm Activities of Tritrpticin Analogs Against Pathogenic Pseudomonas aeruginosa PA01 Strains” (Molecules, 2025).
# Residues, ends and D or L forms follow the SMILES beside them.
# Key:
# [1] = cited from earlier work
# Text: (§1) Overall, our work highlights the potential of […] analogs in comparison to related Trp-rich AMPs as potent antibiofilm peptides that can interfere in biofilms produced by P. aeruginosa and potentially other Gram-negative pathogenic bacteria. New antibiofilm agents are welcome for this organism, as P. aeruginosa is well-known to have numerous mechanisms to elude the action of antibiotics during biofilm formation. Various factors can influence the suitability of AMPs to act as bactericidal and antibiofilm peptides simultaneously (for a general discussion see, for example, [74]). One ...
# S. aureus GFP [2] = assay: MBIC, GFP fluorescence method; type: cell-based, Staphylococcus aureus; details: Table 4, Sa GFP, 10% TSB and 0.1% glucose, mean of three biological replicates
# Outline: (§2)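 GFP-expressing S. aureus, triplicate biological replicates. MIC on planktonic cells by absorbance at 600 nm. MBIC and MBEC from biofilm GFP fluorescence (480/530 nm), with untreated growth and media-only controls.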
# P. aeruginosa PAO1 GFP [3] = assay: MBEC, biofilm eradication, GFP fluorescence method; type: cell-based, Pseudomonas aeruginosa; details: Table 2, BM2 medium, mean of three biological replicates
# Outline: (§3)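 GFP-expressing P. aeruginosa PAO1 exposed to peptides; planktonic MIC read by absorbance at 600 nm, while MBIC (prevention) and MBEC (eradication) used biofilm GFP fluorescence at 480/530 nm. Triplicate biological replicates averaged, with untreated growth and medium-only controls on each plate.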
# S. aureus GFP [4] = type: cell-based, Staphylococcus aureus; details: Table 4; Sa GFP; lowest concentration of peptide with no bacterial growth seen on the spot agar plate
# P. aeruginosa PAO1 [5] = type: cell-based, Pseudomonas aeruginosa; details: Table 5; PAO1, 1x BM2; biofilms on pegs, cells plated and counted; three biological replicates
# Outline: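 Biofilm eradication (MBEC) for peptides against P. aeruginosa PAO1 in 1× BM2 medium, from counts of biofilm cells; GFP-producing strain fluorescence, crystal violet staining and Calgary peg device also used. Three biological replicates, mean ± SD, with untreated growth and medium-only controls.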
# P. aeruginosa PAO1 [6] = type: cell-based; details: for MBIC (CV at 595 nm) LD50 / MBRC (CV at 595 nm) LD50: PAO1; for MBIC (CV at 595 nm) LD90 / MBRC (CV at 595 nm) LD90: Table 5, PAO1, 1x BM2, crystal violet at 595 nm, mean of three biological replicates; for MBRC (CV at 595 nm) LD90: minimum biofilm reduction concentration
# Outline: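 Peptides tested against P. aeruginosa PAO1 in 1× BM2 medium; planktonic growth read at 600 nm for MIC. Biofilm inhibition and eradication quantified by 0.1% crystal violet staining (15 min), ethanol release, absorbance at 595 nm, plus GFP-fluorescence and Calgary peg-device methods; triplicate means.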
# red blood cells = details: cited from earlier work
# Text: as §1
# [7] = tested on: peripheral blood mononuclear cells (PBMCs); details: cited from earlier work
# Text: as §1
# P. aeruginosa PAO1 GFP [8] = assay: MIC against planktonic cells, absorbance at 600 nm; type: cell-based, Pseudomonas aeruginosa; details: Table 2, BM2 medium, absorbance 600 nm, mean of three biological replicates
# Outline: as §3
# P. aeruginosa PAO1 [9] = type: cell-based, Pseudomonas aeruginosa; details: Table 5; regular PAO1 (no GFP), 1x BM2; absorbance 600 nm; mean of three biological replicates
# Outline: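 PAO1 tested with peptides in 1× BM2; planktonic growth read at 600 nm, biofilm quantified by 0.1% crystal violet staining (15 min), ethanol release and 595 nm reading, using a Calgary biofilm device. Values are means of three replicates with untreated-growth and medium-only controls.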
# P. aeruginosa PAO1 GFP [10] = assay: MBIC, prevention of biofilm formation, GFP fluorescence method; type: cell-based, Pseudomonas aeruginosa; details: Table 2, BM2 medium, mean of three biological replicates
# Outline: as §3
# S. aureus GFP [11] = assay: MBEC, GFP fluorescence method; type: cell-based, Staphylococcus aureus; details: Table 4, Sa GFP, 10% TSB and 0.1% glucose, mean of three biological replicates
# Outline: as §2
# S. aureus GFP [12] = assay: MIC against planktonic cells, absorbance at 600 nm; type: cell-based, Staphylococcus aureus; details: Table 4; Sa GFP, 10% TSB and 0.1% glucose; absorbance 600 nm; mean of three biological replicates
# Outline: as §2
SMILES,MBIC at 488 and 530 nm LD50 (S. aureus GFP [2]),MBIC at 488 and 530 nm LD90 (S. aureus GFP [2]),MBEC at 488 and 530 nm LD50 (P. aeruginosa PAO1 GFP [3]),MBEC at 488 and 530 nm LD90 (P. aeruginosa PAO1 GFP [3]),MBC Agar Plate (S. aureus GFP [4]),MBEC from Calgary Biofilm Device (CBD) LD50 (P. aeruginosa PAO1 [5]),MBEC from Calgary Biofilm Device (CBD) LD90 (P. aeruginosa PAO1 [5]),MBIC (CV at 595 nm) LD50 (P. aeruginosa PAO1 [6]),MBRC (CV at 595 nm) LD50 (P. aeruginosa PAO1 [6]),MBIC (CV at 595 nm) LD90 (P. aeruginosa PAO1 [6]),MBRC (CV at 595 nm) LD90 (P. aeruginosa PAO1 [6]),hemolytic activity (red blood cells),cytotoxicity activities against PBMCs [7],MIC at 600 nm LD50 (P. aeruginosa PAO1 GFP [8]),MIC at 600 nm LD90 (P. aeruginosa PAO1 GFP [8]),MIC at 600 nm LD50 (P. aeruginosa PAO1 [9]),MIC at 600 nm LD90 (P. aeruginosa PAO1 [9]),MBIC at 488 and 530 nm LD50 (P. aeruginosa PAO1 GFP [10]),MBIC at 488 and 530 nm LD90 (P. aeruginosa PAO1 GFP [10]),MBEC at 488 and 530 nm LD50 (S. aureus GFP [11]),also measured
"NCC(N)C(=O)O (centres unmarked) [Dap, 2,3-diaminopropionic acid]",–,–,–,–,–,–,–,–,–,–,–,–,–,–,–,–,–,–,–,–,sidechain pKa value [1]: 6.3
CC(C)C[C@H](NC(=O)[C@H](Cc1ccccc1)NC(=O)[C@H](C)NC(=O)[C@H](Cc1c[nH]c2ccccc12)NC(=O)[C@H](Cc1c[nH]c2ccccc12)NC(=O)[C@H](Cc1c[nH]c2ccccc12)NC(=O)[C@@H]1CCCN1C(=O)[C@H](Cc1ccccc1)NC(=O)[C@H](CCCNC(=N)N)NC(=O)[C@H](CCCNC(=N)N)NC(=O)[C@@H](N)C(C)C)C(=O)N[C@@H](CCCNC(=N)N)C(=O)N[C@@H](CCCNC(=N)N)C(N)=O [Tritrp-P9A] (H-VRRFPWWWAFLRR-NH2),0.25 µmol/L,2 µmol/L,4 µmol/L,8 µmol/L,2 µM,8 µmol/L,16 µmol/L,1 µmol/L,16 µmol/L,2 µmol/L,32 µmol/L,slightly more modest,quite strong,2 µM,2 µM,2 µM,2 µM,0.25 µmol/L,2 µmol/L,0.5 µmol/L,MBEC at 488 and 530 nm LD90 (S. aureus GFP [11]): 2 µmol/L; MIC at 600 nm LD50 (S. aureus GFP [12]): 0.25 µM; MIC at 600 nm LD90 (S. aureus GFP [12]): 1 µM
CC(C)C[C@H](NC(=O)[C@H](Cc1ccccc1)NC(=O)[C@H](C)NC(=O)[C@H](Cc1c[nH]c2ccccc12)NC(=O)[C@H](Cc1c[nH]c2ccccc12)NC(=O)[C@H](Cc1c[nH]c2ccccc12)NC(=O)[C@H](C)NC(=O)[C@H](Cc1ccccc1)NC(=O)[C@H](CCCNC(=N)N)NC(=O)[C@H](CCCNC(=N)N)NC(=O)[C@@H](N)C(C)C)C(=O)N[C@@H](CCCNC(=N)N)C(=O)N[C@@H](CCCNC(=N)N)C(N)=O [Tritrp-P59A] (H-VRRFAWWWAFLRR-NH2),2 µmol/L,2 µmol/L,8 µmol/L,16 µmol/L,4 µM,16 µmol/L,32 µmol/L,4 µmol/L,32 µmol/L,4 µmol/L,32 µmol/L,relatively strong,quite strong,2 µM,4 µM,2 µM,4 µM,2 µmol/L,4 µmol/L,1 µmol/L,MBEC at 488 and 530 nm LD90 (S. aureus GFP [11]): 2 µmol/L; MIC at 600 nm LD50 (S. aureus GFP [12]): 1 µM; MIC at 600 nm LD90 (S. aureus GFP [12]): 2 µM
